From patent US6489469B1, “Method for storing or transporting erythritol solution” (Nikken Chemicals Co., Ltd., priority 1999, dated 2002)

How the values were obtained:
[1] = test system: Candida albicans IFO 1549; assay: Viable Count of Candida albicans IFO 1549 in Erythritol Solution; format: cell-based
Description: (§1) Erythritol solutions of respective concentrations in the range of from 30 to 60% were prepared. To these were inoculated Staphylococcus aureus IFO 13276, Bacillus subtilis IFO 3134, and Escherichia coli IFO 3972 as bacteria, Candida albicans IFO 1549 and Saccharomyces cerevisiae ATCC 9763 as yeasts, Aspergillus niger IFO 6342, Aspergillus flavus IFO 6343, and Penicillium funiculosum IFO 6345 as fungi, respectively, in a population (concentration) of 10,000 cells/mL or more. After the inoculation, the solutions were stored at 30, 37, 45, 50, or 60° C., respectively, for 56 days and the number of viable cell was determined daily. The determination of the number of viable cell was performed by a method of coating 0.1 mL of appropriately diluted sample cultivation on an agar plate and cultivating and counting the number of viable cell (the number of colony) that grew after the cultivation.

[2] = test system: Aspergillus niger IFO 6342; assay: Viable Count of Aspergillus niger IFO 6342 in Erythritol Solution; format: cell-based
Description: as §1

OC[C@@H](O)[C@@H](O)CO [Erythritol Solution, erythritol]
3 days: time after which microbes died ([1]; temperature of 50° C. or more)
0 cells/mL: The Number of Viable Cell ([1]; 45° C., 30% w/w, Day 7) | The Number of Viable Cell ([1]; 45° C., 30% w/w, Day 14) | The Number of Viable Cell ([1]; 45° C., 30% w/w, Day 28) | The Number of Viable Cell ([1]; 45° C., 30% w/w, Day 56) | The Number of Viable Cell ([1]; 45° C., 40% w/w, Day 3) | The Number of Viable Cell ([1]; 45° C., 40% w/w, Day 7) | The Number of Viable Cell ([1]; 45° C., 40% w/w, Day 14) | The Number of Viable Cell ([1]; 45° C., 40% w/w, Day 28) | The Number of Viable Cell ([1]; 45° C., 40% w/w, Day 56) | The Number of Viable Cell ([1]; 45° C., 50% w/w, Day 3) | The Number of Viable Cell ([1]; 45° C., 50% w/w, Day 7) | The Number of Viable Cell ([1]; 45° C., 50% w/w, Day 14) | The Number of Viable Cell ([1]; 45° C., 50% w/w, Day 28) | The Number of Viable Cell ([1]; 45° C., 50% w/w, Day 56) | The Number of Viable Cell ([1]; 50° C., 30% w/w, Day 3) | The Number of Viable Cell ([1]; 50° C., 30% w/w, Day 7) | The Number of Viable Cell ([1]; 50° C., 30% w/w, Day 14) | The Number of Viable Cell ([1]; 50° C., 30% w/w, Day 28) | The Number of Viable Cell ([1]; 50° C., 30% w/w, Day 56) | The Number of Viable Cell ([1]; 50° C., 40% w/w, Day 3) | The Number of Viable Cell ([1]; 50° C., 40% w/w, Day 7) | The Number of Viable Cell ([1]; 50° C., 40% w/w, Day 14) | The Number of Viable Cell ([1]; 50° C., 40% w/w, Day 28) | The Number of Viable Cell ([1]; 50° C., 40% w/w, Day 56) | The Number of Viable Cell ([1]; 50° C., 50% w/w, Day 3) | The Number of Viable Cell ([1]; 50° C., 50% w/w, Day 7) | The Number of Viable Cell ([1]; 50° C., 50% w/w, Day 14) | The Number of Viable Cell ([1]; 50° C., 50% w/w, Day 28) | The Number of Viable Cell ([1]; 50° C., 50% w/w, Day 56) | The Number of Viable Cell ([2]; 45° C., 30% w/w, Day 56) | The Number of Viable Cell ([2]; 45° C., 40% w/w, Day 28) | The Number of Viable Cell ([2]; 45° C., 40% w/w, Day 56) | The Number of Viable Cell ([2]; 45° C., 50% w/w, Day 28) | The Number of Viable Cell ([2]; 45° C., 50% w/w, Day 56) | The Number of Viable Cell ([2]; 50° C., 30% w/w, Day 3) | The Number of Viable Cell ([2]; 50° C., 30% w/w, Day 7) | The Number of Viable Cell ([2]; 50° C., 30% w/w, Day 14) | The Number of Viable Cell ([2]; 50° C., 30% w/w, Day 28) | The Number of Viable Cell ([2]; 50° C., 30% w/w, Day 56) | The Number of Viable Cell ([2]; 50° C., 40% w/w, Day 7) | The Number of Viable Cell ([2]; 50° C., 40% w/w, Day 14) | The Number of Viable Cell ([2]; 50° C., 40% w/w, Day 28) | The Number of Viable Cell ([2]; 50° C., 40% w/w, Day 56) | The Number of Viable Cell ([2]; 50° C., 50% w/w, Day 7) | The Number of Viable Cell ([2]; 50° C., 50% w/w, Day 14) | The Number of Viable Cell ([2]; 50° C., 50% w/w, Day 28) | The Number of Viable Cell ([2]; 50° C., 50% w/w, Day 56) | The Number of Viable Cell ([2]; 60° C., 30% w/w, Day 3) | The Number of Viable Cell ([2]; 60° C., 30% w/w, Day 7) | The Number of Viable Cell ([2]; 60° C., 30% w/w, Day 14) | The Number of Viable Cell ([2]; 60° C., 30% w/w, Day 28) | The Number of Viable Cell ([2]; 60° C., 30% w/w, Day 56) | The Number of Viable Cell ([2]; 60° C., 40% w/w, Day 3) | The Number of Viable Cell ([2]; 60° C., 40% w/w, Day 7) | The Number of Viable Cell ([2]; 60° C., 40% w/w, Day 14) | The Number of Viable Cell ([2]; 60° C., 40% w/w, Day 28) | The Number of Viable Cell ([2]; 60° C., 40% w/w, Day 56) | The Number of Viable Cell ([2]; 60° C., 50% w/w, Day 3) | The Number of Viable Cell ([2]; 60° C., 50% w/w, Day 7) | The Number of Viable Cell ([2]; 60° C., 50% w/w, Day 14) | The Number of Viable Cell ([2]; 60° C., 50% w/w, Day 28) | The Number of Viable Cell ([2]; 60° C., 50% w/w, Day 56) | The Number of Viable Cell ([2]; 60° C., 60% w/w, Day 3) | The Number of Viable Cell ([2]; 60° C., 60% w/w, Day 7) | The Number of Viable Cell ([2]; 60° C., 60% w/w, Day 14) | The Number of Viable Cell ([2]; 60° C., 60% w/w, Day 28) | The Number of Viable Cell ([2]; 60° C., 60% w/w, Day 56)
7 days: time after which microbes died ([2]; temperature of 50° C. or more)
≥ 10000 cells/mL: The Number of Viable Cell ([1]; 37° C., 30% w/w, Day 0) | The Number of Viable Cell ([1]; 37° C., 30% w/w, Day 3) | The Number of Viable Cell ([1]; 37° C., 30% w/w, Day 7) | The Number of Viable Cell ([1]; 37° C., 30% w/w, Day 14) | The Number of Viable Cell ([1]; 37° C., 30% w/w, Day 28) | The Number of Viable Cell ([1]; 37° C., 30% w/w, Day 56) | The Number of Viable Cell ([1]; 37° C., 40% w/w, Day 0) | The Number of Viable Cell ([1]; 37° C., 40% w/w, Day 3) | The Number of Viable Cell ([1]; 37° C., 40% w/w, Day 7) | The Number of Viable Cell ([1]; 37° C., 40% w/w, Day 14) | The Number of Viable Cell ([1]; 37° C., 40% w/w, Day 28) | The Number of Viable Cell ([1]; 37° C., 40% w/w, Day 56) | The Number of Viable Cell ([1]; 45° C., 30% w/w, Day 0) | The Number of Viable Cell ([1]; 45° C., 40% w/w, Day 0) | The Number of Viable Cell ([1]; 45° C., 50% w/w, Day 0) | The Number of Viable Cell ([1]; 50° C., 30% w/w, Day 0) | The Number of Viable Cell ([1]; 50° C., 40% w/w, Day 0) | The Number of Viable Cell ([1]; 50° C., 50% w/w, Day 0) | The Number of Viable Cell ([2]; 45° C., 30% w/w, Day 0) | The Number of Viable Cell ([2]; 45° C., 30% w/w, Day 3) | The Number of Viable Cell ([2]; 45° C., 30% w/w, Day 7) | The Number of Viable Cell ([2]; 45° C., 30% w/w, Day 14) | The Number of Viable Cell ([2]; 45° C., 30% w/w, Day 28) | The Number of Viable Cell ([2]; 45° C., 40% w/w, Day 0) | The Number of Viable Cell ([2]; 45° C., 40% w/w, Day 3) | The Number of Viable Cell ([2]; 45° C., 40% w/w, Day 7) | The Number of Viable Cell ([2]; 45° C., 40% w/w, Day 14) | The Number of Viable Cell ([2]; 45° C., 50% w/w, Day 0) | The Number of Viable Cell ([2]; 45° C., 50% w/w, Day 3) | The Number of Viable Cell ([2]; 45° C., 50% w/w, Day 7) | The Number of Viable Cell ([2]; 45° C., 50% w/w, Day 14) | The Number of Viable Cell ([2]; 50° C., 30% w/w, Day 0) | The Number of Viable Cell ([2]; 50° C., 40% w/w, Day 0) | The Number of Viable Cell ([2]; 50° C., 40% w/w, Day 3) | The Number of Viable Cell ([2]; 50° C., 50% w/w, Day 0) | The Number of Viable Cell ([2]; 50° C., 50% w/w, Day 3) | The Number of Viable Cell ([2]; 60° C., 30% w/w, Day 0) | The Number of Viable Cell ([2]; 60° C., 40% w/w, Day 0) | The Number of Viable Cell ([2]; 60° C., 50% w/w, Day 0) | The Number of Viable Cell ([2]; 60° C., 60% w/w, Day 0)
prevented from growing: growth of the microbes ([1]; temperature of 50° C. or more) | growth of the microbes ([2]; temperature of 50° C. or more)
190 cells/mL: The Number of Viable Cell ([1]; 45° C., 30% w/w, Day 3)
